Measured values reported in ChEMBL document CHEMBL4825682, “Discovery of novel purinylthiazolylethanone derivatives as anti-Candida albicans agents through possible multifaceted mechanisms” (Eur J Med Chem, 2021).
≈ marks a conversion by molar mass, not a printed value. Calls of active or inactive are those of the source. The calls are words filed in the database; no cut-off is given here.

Legend:
[1] = Hemolytic activity in human RBC; type: cell-based, Erythrocyte; settings: human red blood cells (erythrocytes)
Candida albicans [2] = assay: Antifungal activity against Candida albicans ATCC 90023 assessed as fungal growth inhibition by CLSI protocol based microbroth dilution method; type: functional
Candida tropicalis = assay: Antifungal activity against Candida tropicalis assessed as fungal growth inhibition by CLSI protocol based microbroth dilution method; type: functional
Candida parapsilosis = assay: Antifungal activity against Candida parapsilosis ATCC 22019 assessed as fungal growth inhibition by CLSI protocol based microbroth dilution method; type: functional; settings: Lodderomyces parapsilosis
Aspergillus fumigatus = assay: Antifungal activity against Aspergillus fumigatus assessed as fungal growth inhibition by CLSI protocol based microbroth dilution method; type: functional
Candida albicans [3] = assay: Antifungal activity against Candida albicans assessed as fungal growth inhibition by CLSI protocol based microbroth dilution method; type: functional
Candida albicans [4] = assay: Antifungal activity against Candida albicans measured after 8 passages; type: functional, organism-based

Row | SMILES | HC50 [1] | MIC (Candida albicans [2]) | MIC (Candida tropicalis) | MIC (Candida parapsilosis) | MIC (Aspergillus fumigatus) | MIC (Candida albicans [3]) | Activity (Candida albicans [4])
1 | O=C(Cn1cnc2c(N3CCN(CC(=O)N4CCCC4)CC3)ncnc21)c1nccs1 | > 256 µg/mL | 256 µg/mL (≈ 581 µM) | 32 µg/mL (≈ 72.6 µM) | 128 µg/mL (≈ 291 µM) | 64 µg/mL (≈ 145 µM) | 2 µg/mL (≈ 4.54 µM) | –
2 | O=C(Cn1cnc2c(N3CCN(Cc4ccc([N+](=O)[O-])cc4)CC3)ncnc21)c1nccs1 | > 256 µg/mL | 128 µg/mL (≈ 276 µM) | 64 µg/mL (≈ 138 µM) | 64 µg/mL (≈ 138 µM) | 32 µg/mL (≈ 68.9 µM) | 8 µg/mL (≈ 17.2 µM) | –
3 | CCO/N=C(/Cn1cnc2c(N3CCN(CC(=O)OCC)CC3)ncnc21)c1nccs1 | > 256 µg/mL | 64 µg/mL (≈ 140 µM) | 128 µg/mL (≈ 279 µM) | 128 µg/mL (≈ 279 µM) | 128 µg/mL (≈ 279 µM) | 64 µg/mL (≈ 140 µM) | –
4 | CC(C)(C)OC(=O)N1CCN(C(=O)CN2CCN(c3ncnc4c3ncn4CC(=O)c3nccs3)CC2)CC1 | > 256 µg/mL | 16 µg/mL (≈ 28.8 µM) | 64 µg/mL (≈ 115 µM) | 128 µg/mL (≈ 230 µM) | 128 µg/mL (≈ 230 µM) | 32 µg/mL (≈ 57.6 µM) | –
5 | CCCCN1CCN(c2ncnc3c2ncn3CC(=O)c2nccs2)CC1 | > 256 µg/mL | 64 µg/mL (≈ 166 µM) | 128 µg/mL (≈ 332 µM) | 64 µg/mL (≈ 166 µM) | 256 µg/mL (≈ 664 µM) | 4 µg/mL (≈ 10.4 µM) | –
6 | O=C(Cn1cnc2c(N3CCN(Cc4ccccc4F)CC3)ncnc21)c1nccs1 | > 256 µg/mL | 2 µg/mL (≈ 4.57 µM) | 256 µg/mL (≈ 585 µM) | 256 µg/mL (≈ 585 µM) | 32 µg/mL (≈ 73.1 µM) | 256 µg/mL (≈ 585 µM) | –
7 | CCCCCCCCCCCCCCCCCCN1CCN(c2ncnc3c2ncn3CC(=O)c2nccs2)CC1 | > 256 µg/mL | 256 µg/mL (≈ 440 µM) | 64 µg/mL (≈ 110 µM) | 128 µg/mL (≈ 220 µM) | 32 µg/mL (≈ 55 µM) | 2 µg/mL (≈ 3.44 µM) | –
8 | C=CCN1CCN(c2ncnc3c2ncn3CC(=O)c2nccs2)CC1 | > 256 µg/mL | 64 µg/mL (≈ 173 µM) | 32 µg/mL (≈ 86.6 µM) | 8 µg/mL (≈ 21.7 µM) | 64 µg/mL (≈ 173 µM) | 4 µg/mL (≈ 10.8 µM) | –
9 | O=C(Cn1cnc2c(N3CCCCCC3)ncnc21)c1nccs1 | > 256 µg/mL | 8 µg/mL (≈ 23.4 µM) | 256 µg/mL (≈ 748 µM) | 256 µg/mL (≈ 748 µM) | 64 µg/mL (≈ 187 µM) | 256 µg/mL (≈ 748 µM) | –
10 | C#CCN1CCN(c2ncnc3c2ncn3CC(=O)c2nccs2)CC1 | > 256 µg/mL | 16 µg/mL (≈ 43.5 µM) | 256 µg/mL (≈ 697 µM) | 256 µg/mL (≈ 697 µM) | 32 µg/mL (≈ 87.1 µM) | 256 µg/mL (≈ 697 µM) | –
11 | O=C(Cn1cnc2c(N3CCCC3)ncnc21)c1nccs1 | > 256 µg/mL | 32 µg/mL (≈ 102 µM) | 64 µg/mL (≈ 204 µM) | 32 µg/mL (≈ 102 µM) | 32 µg/mL (≈ 102 µM) | 16 µg/mL (≈ 50.9 µM) | –
12 | O=C(Cn1cnc2c(Cl)ncnc21)c1nccs1 | > 256 µg/mL | 128 µg/mL (≈ 458 µM) | 32 µg/mL (≈ 114 µM) | 64 µg/mL (≈ 229 µM) | 128 µg/mL (≈ 458 µM) | 64 µg/mL (≈ 229 µM) | –
13 | O=C(Cn1cnc2c(N3CCNCC3)ncnc21)c1nccs1 | > 256 µg/mL | 32 µg/mL (≈ 97.1 µM) | 32 µg/mL (≈ 97.1 µM) | 256 µg/mL (≈ 777 µM) | 64 µg/mL (≈ 194 µM) | 64 µg/mL (≈ 194 µM) | –
14 | CCCCCCCCN1CCN(c2ncnc3c2ncn3CC(=O)c2nccs2)CC1 | > 256 µg/mL | 256 µg/mL (≈ 580 µM) | 16 µg/mL (≈ 36.2 µM) | 16 µg/mL (≈ 36.2 µM) | 64 µg/mL (≈ 145 µM) | 2 µg/mL (≈ 4.53 µM) | –
15 | OC(Cn1cncn1)(Cn1cncn1)c1ccc(F)cc1F [FLUCONAZOLE] | > 256 µg/mL | 2 µg/mL (≈ 6.53 µM) | 8 µg/mL (≈ 26.1 µM) | 4 µg/mL (≈ 13.1 µM) | 256 µg/mL (≈ 836 µM) | 4 µg/mL (≈ 13.1 µM) | Active
16 | O=C(Cn1cnc2c(N3CCOCC3)ncnc21)c1nccs1 | > 256 µg/mL | 2 µg/mL (≈ 6.05 µM) | 32 µg/mL (≈ 96.9 µM) | 2 µg/mL (≈ 6.05 µM) | 64 µg/mL (≈ 194 µM) | 64 µg/mL (≈ 194 µM) | –
